Results on one compound are retold here after patent US11971413B2, “Peptoid, and its preparation method and use” (BEIJING BOE TECHNOLOGY DEVELOPMENT CO., LTD., priority 2019, dated 2024).

Structures are written as SMILES. Where a SMILES comes first, the peptide text is derived from it. [ ]: non-standard residue; d: D form. ξ: configuration not given here. N(CH2CH2COOH)Gly = O=C(O)CCNCC(=O)O; Gly(N-CH2CH2OH) = O=C(O)CNCCO; Nleu = CC(C)CNCC(=O)O; Nlys = NCCCCNCC(=O)O; ξC = NC(CS)C(=O)O

Assay [1] relates to Huh7 cell line with high expression of an EpCAM protein. As to the kind of experiment: Cell-level imaging with fluorescently labeled peptoid molecular probe, laser confocal microscopy, Huh7 cells. The assay is classed as cell-based. The note with it: probe incubated at 4° C. for 30 min, confocal 100× oil objective. The method, then: (§1) The specific steps for cell-level imaging using a fluorescently labeled molecular probe with a peptoid were as follows: • (1) Cell culture and passage: The cell models were an Huh7 cell line with high expression of an EpCAM protein and a human embryonic kidney 293T cell line with low expression of EpCAM (Shanghai Biological Technology Co., Ltd. enzyme research); Huh7 and 293T cells were cultured in a constant temperature incubator (5% CO2) at 37° C. with RPMI1640 medium and DMEM/High glucose medium containing 10% fetal bovine serum and 1% penicillin and streptomycin, respectively; • (2) When the degree of cell fusion reached more than 90%, the cells were passaged. […]

For assay [2], the system named is human embryonic kidney 293T cell line with low expression of EpCAM. In words: Cell-level imaging with fluorescently labeled peptoid molecular probe, laser confocal microscopy, 293T control cells. The assay is classed as cell-based. The note with it: 293T cells (low EpCAM, control group), probe incubated at 4° C. for 30 min, confocal 100× oil objective. The method, then:
as §1

Turning to `CC(C)CNCC(=O)N(CCCCN)CC(=O)N(CCO)CC(=O)N(CCC(=O)O)CC(=O)N(CCCCN)CC(=O)N(CCCCN)CC(=O)NC(CS)C(N)=O` (centres unmarked) [Example 1] (H-[Nleu][Nlys][Gly(N-CH2CH2OH)][N(CH2CH2COOH)Gly][Nlys][Nlys][ξC]-NH2), the “FITC green fluorescence on the cell membrane” value in assay [1] is listed as “Significant green fluorescence”; in assay [2] it was “weak green fluorescence or no green fluorescence”.
